Assay results taken from PubChem BioAssay AID250 (DTP/NCI, 2004).
“And” between values parts separate entries of the source, which are not always exact repeats. Identical values can stand only once. Toxic doses and inconclusive results are not listed. The calls were made as follows: active = survival T/C of 150% or more; inactive = T/C below 125% in these data.

Test system: BDF1 mice, L1210 leukemia sc, survival T/C
Test: NCI In Vivo Anticancer Drug Screen. Data for tumor model L1210 Leukemia (subcutaneous) in B6D2F1 (BDF1) mice
Conditions: higher = longer survival
Method in brief: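 Antitumor activity is assessed in mice with transplanted tumors by comparing the treated group (T) with the vehicle control group (C).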

[1] = endpoint: median survival time, dose: 23.0 mg/kg/injection, schedule: Q01DX Z (sc), vehicle: water
[2] = endpoint: median survival time, dose: 39.0 mg/kg/injection, schedule: Q01DX Z (sc), vehicle: water
[3] = endpoint: median survival time, dose: 65.0 mg/kg/injection, schedule: Q01DX Z (sc), vehicle: water
[4] = endpoint: median survival time, dose: 108.0 mg/kg/injection, schedule: Q01DX Z (sc), vehicle: water
[5] = endpoint: median survival time, dose: 180.0 mg/kg/injection, schedule: Q01DX Z (sc), vehicle: water
[6] = endpoint: median survival time, dose: 300.0 mg/kg/injection, schedule: Q01DX Z (sc), vehicle: water

Measured: T/C

CC(=O)OCC(=O)[C@@]1(O)CC[C@H]2[C@@H]3CCC4=CC(=O)CC[C@]4(C)[C@@]3(F)[C@@H](O)C[C@@]21C
inactive: endpoint: median survival time, dose: 39.0 mg/kg/injection, schedule: Q01DX Z (sc), vehicle: methylcellulose (MC) 100 % of control | endpoint: median survival time, dose: 65.0 mg/kg/injection, schedule: Q01DX Z (sc), vehicle: methylcellulose (MC) 100 % of control | endpoint: median survival time, dose: 108.0 mg/kg/injection, schedule: Q01DX Z (sc), vehicle: methylcellulose (MC) 100 % of control | endpoint: median survival time, dose: 180.0 mg/kg/injection, schedule: Q01DX Z (sc), vehicle: methylcellulose (MC) 104 % of control | endpoint: median survival time, dose: 300.0 mg/kg/injection, schedule: Q01DX Z (sc), vehicle: methylcellulose (MC) 100 % of control | endpoint: median survival time, dose: 500.0 mg/kg/injection, schedule: Q01DX Z (sc), vehicle: methylcellulose (MC) 100 % of control

CC1CN1CCS(=O)(=O)CCN1CC1C (stereo unspecified)
active: endpoint: median survival time, dose: 8.64 mg/kg/injection, schedule: Q01DX Z (sc), vehicle: saline 168 % of control | endpoint: median survival time, dose: 14.4 mg/kg/injection, schedule: Q01DX Z (sc), vehicle: saline 163 % of control
inactive: endpoint: median survival time, dose: 5.18 mg/kg/injection, schedule: Q01DX Z (sc), vehicle: saline 121 % of control | endpoint: median survival time, dose: 24.0 mg/kg/injection, schedule: Q01DX Z (sc), vehicle: saline 115 % of control | endpoint: median survival time, dose: 40.0 mg/kg/injection, schedule: Q01DX Z (sc), vehicle: saline 105 % of control

S=P(N1CCOCC1)(N1CC1)N1CC1
active: endpoint: median survival time, dose: 39.0 mg/kg/injection, schedule: Q01DX Z (sc), vehicle: saline 150 % of control and 180 % of control | endpoint: median survival time, dose: 65.0 mg/kg/injection, schedule: Q01DX001 (sc), vehicle: saline 150 % of control | endpoint: median survival time, dose: 65.0 mg/kg/injection, schedule: Q01DX Z (sc), vehicle: saline 150 % of control | endpoint: median survival time, dose: 65.0 mg/kg/injection, schedule: Q## X Z (sc), vehicle: saline 170 % of control
inactive: endpoint: median survival time, dose: 14.0 mg/kg/injection, schedule: Q01DX Z (sc), vehicle: saline 96 % of control and 110 % of control (2×) | endpoint: median survival time, dose: 23.0 mg/kg/injection, schedule: Q## X Z (sc), vehicle: saline 120 % of control | endpoint: median survival time, dose: 39.0 mg/kg/injection, schedule: Q01DX001 (sc), vehicle: saline 120 % of control | endpoint: median survival time, dose: 108.0 mg/kg/injection, schedule: Q01DX Z (sc), vehicle: saline 104 % of control and 120 % of control | endpoint: median survival time, dose: 180.0 mg/kg/injection, schedule: Q01DX Z (sc), vehicle: saline 104 % of control and 120 % of control | endpoint: median survival time, dose: 500.0 mg/kg/injection, schedule: Q01DX001 (sc), vehicle: saline 115 % of control

CC[C@@]1(O)C(=O)OCc2c1cc1n(c2=O)Cc2cc3ccccc3nc2-1
inactive: endpoint: median survival time, dose: 0.65 mg/kg/injection, schedule: Q01DX Z (sc), vehicle: carboxymethylcellulose (CMC) 100 % of control | endpoint: median survival time, dose: 1.08 mg/kg/injection, schedule: Q01DX Z (sc), vehicle: carboxymethylcellulose (CMC) 100 % of control | endpoint: median survival time, dose: 1.8 mg/kg/injection, schedule: Q01DX Z (sc), vehicle: carboxymethylcellulose (CMC) 122 % of control | endpoint: median survival time, dose: 3.0 mg/kg/injection, schedule: Q01DX Z (sc), vehicle: carboxymethylcellulose (CMC) 118 % of control

Nc1ccn(C2CC(O)C(CO)O2)c(=O)n1 (stereo unspecified)
inactive: endpoint: median survival time, dose: 37.5 mg/kg/injection, schedule: Q06HX018 (sc), vehicle: water 108 % of control | endpoint: median survival time, dose: 37.5 mg/kg/injection, schedule: Q## X018 (sc), vehicle: water 111 % of control | endpoint: median survival time, dose: 75.0 mg/kg/injection, schedule: Q03HX008 (sc), vehicle: water 90 % of control and 93 % of control | endpoint: median survival time, dose: 75.0 mg/kg/injection, schedule: Q06HX018 (sc), vehicle: water 102 % of control | endpoint: median survival time, dose: 75.0 mg/kg/injection, schedule: Q## X018 (sc), vehicle: water 100 % of control | endpoint: median survival time, dose: 150.0 mg/kg/injection, schedule: Q03HX008 (sc), vehicle: water 100 % of control and 102 % of control | endpoint: median survival time, dose: 150.0 mg/kg/injection, schedule: Q06HX018 (sc), vehicle: water 98 % of control | endpoint: median survival time, dose: 150.0 mg/kg/injection, schedule: Q## X018 (sc), vehicle: water 100 % of control | endpoint: median survival time, dose: 300.0 mg/kg/injection, schedule: Q06HX018 (sc), vehicle: water 106 % of control | endpoint: median survival time, dose: 300.0 mg/kg/injection, schedule: Q## X018 (sc), vehicle: water 105 % of control

O=c1nc2[nH]c(=O)[nH]c(=O)c2n[nH]1
inactive: endpoint: median survival time, dose: 10.0 mg/kg/injection, schedule: Q01DX Z (sc), vehicle: saline 100 % of control | endpoint: median survival time, dose: 28.0 mg/kg/injection, schedule: Q01DX Z (sc), vehicle: saline 100 % of control | endpoint: median survival time, dose: 47.0 mg/kg/injection, schedule: Q01DX Z (sc), vehicle: saline 100 % of control | endpoint: median survival time, dose: 78.0 mg/kg/injection, schedule: Q01DX Z (sc), vehicle: saline 100 % of control

Cc1c2ccncc2c(C)c2c1[nH]c1ccccc12
inactive: endpoint: median survival time, dose: 5.0 mg/kg/injection, schedule: Q03HX008 (ip), vehicle: steriod suspending solution 111 % of control | endpoint: median survival time, dose: 5.0 mg/kg/injection, schedule: Q03HX008 (sc), vehicle: steriod suspending solution 100 % of control | endpoint: median survival time, dose: 10.0 mg/kg/injection, schedule: Q03HX008 (ip), vehicle: steriod suspending solution 111 % of control | endpoint: median survival time, dose: 10.0 mg/kg/injection, schedule: Q03HX008 (sc), vehicle: steriod suspending solution 111 % of control | endpoint: median survival time, dose: 20.0 mg/kg/injection, schedule: Q03HX008 (sc), vehicle: steriod suspending solution 111 % of control
active: endpoint: median survival time, dose: 40.0 mg/kg/injection, schedule: Q03HX008 (ip), vehicle: steriod suspending solution 150 % of control

CCCCC(C)(N)C(=O)O (stereo unspecified)
inactive: endpoint: median survival time, dose: 14.0 mg/kg/injection, schedule: Q01DX Z (sc), vehicle: water 95 % of control | [1] 100 % of control | [2] 100 % of control | [3] 100 % of control | [4] 100 % of control | [5] 100 % of control | [6] 100 % of control

N[C@H](C(=O)O)[C@H]1ON=C(Cl)[C@@H]1O
inactive: endpoint: median survival time, dose: 8.0 mg/kg/injection, schedule: Q01DX009 (sc), vehicle: saline 111 % of control
active: endpoint: median survival time, dose: 32.0 mg/kg/injection, schedule: Q01DX009 (sc), vehicle: saline 150 % of control and 156 % of control | endpoint: median survival time, dose: 64.0 mg/kg/injection, schedule: Q01DX009 (sc), vehicle: saline 153 % of control and 156 % of control | endpoint: median survival time, dose: 128.0 mg/kg/injection, schedule: Q01DX009 (sc), vehicle: saline 156 % of control and 160 % of control | endpoint: median survival time, dose: 256.0 mg/kg/injection, schedule: Q01DX009 (sc), vehicle: saline 157 % of control and 176 % of control | endpoint: median survival time, dose: 512.0 mg/kg/injection, schedule: Q01DX009 (sc), vehicle: saline 176 % of control | endpoint: median survival time, dose: 1024.0 mg/kg/injection, schedule: Q01DX009 (sc), vehicle: saline 177 % of control

O=C(Nc1ccc(C2=NCCN2)cc1)c1ccc(C(=O)Nc2ccc(C3=NCCN3)cc2)c(NC(=O)c2ccc(C(=O)Nc3cc(C(=O)Nc4ccc(C5=NCCN5)cc4)ccc3C(=O)Nc3ccc(C4=NCCN4)cc3)cc2)c1
inactive: [1] 110 % of control | [2] 100 % of control | [3] 100 % of control | [4] 100 % of control | [5] 100 % of control | [6] 100 % of control

Nc1ccn(C2OC(COP(=O)(O)O)C(O)C2O)c(=O)n1 (stereo unspecified)
active: endpoint: median survival time, dose: 3.5 mg/kg/injection, schedule: Q01DX Z (sc), vehicle: other 200 % of control | endpoint: median survival time, dose: 5.8 mg/kg/injection, schedule: Q01DX Z (sc), vehicle: other 244 % of control | endpoint: median survival time, dose: 9.7 mg/kg/injection, schedule: Q01DX Z (sc), vehicle: other 272 % of control | endpoint: median survival time, dose: 16.2 mg/kg/injection, schedule: Q01DX Z (sc), vehicle: other 300 % of control | endpoint: median survival time, dose: 27.0 mg/kg/injection, schedule: Q01DX Z (sc), vehicle: other 350 % of control | endpoint: median survival time, dose: 45.1 mg/kg/injection, schedule: Q01DX Z (sc), vehicle: other 305 % of control | endpoint: median survival time, dose: 75.1 mg/kg/injection, schedule: Q01DX Z (sc), vehicle: other 205 % of control

CS(=O)(=O)Nc1ccc(Nc2c3ccccc3nc3ccccc23)cc1
inactive: endpoint: mean survival time, dose: 10.0 mg/kg/injection, schedule: Q01DX009 (ip), vehicle: saline 96 % of control | endpoint: mean survival time, dose: 20.0 mg/kg/injection, schedule: Q01DX009 (ip), vehicle: saline 103 % of control | endpoint: mean survival time, dose: 40.0 mg/kg/injection, schedule: Q01DX009 (ip), vehicle: saline 111 % of control | endpoint: mean survival time, dose: 80.0 mg/kg/injection, schedule: Q01DX009 (ip), vehicle: saline 90 % of control
